For test [1], the target named is T1, HCV polymerase (Hepatitis C virus genotype 1b, UniProt Q9WMX2).
T1 construct: (His)6 (C)
Description: biochemical. The following applies: polymerase assay of Biological Example 1; read-out: NS5B polymerase IC50.

Test [2] has as its system HCV replicon I389luc-ubi-neo/NS3-3'/ET in ET (Huh-lucubineo-ET) cells. In words: Replicon assay (Biological Example 2), luciferase read-out. As to conditions: Hepatitis C virus, luciferase activity 48 hours after compound addition. Type of test: cell-based. As for the experimental part: A cell line, ET (Huh-lucubineo-ET) is used for screening of compounds for inhibiting HCV RNA dependent RNA polymerase. The ET cell line is stably transfected with RNA transcripts harboring a I389luc-ubi-neo/NS3-3′/ET; replicon with firefly luciferase-ubiquitin-neomycin phosphotransferase fusion protein and EMCV-IRES driven NS3-5B polyprotein containing the cell culture adaptive mutations (E1202G; […]; K1846T) (Krieger at al, 2001 and unpublished). The ET cells are grown in DMEM (Dulbeco's Modified Eagle's Medium), supplemented with 10% fetal calf serum, 2 mM Glutamine, Penicillin (100 IU/mL)/Streptomycin (100 μg/mL), 1× nonessential amino acids, and 250 μg/mL G418 (“Geneticin”). Reagents are all available through Life Technologies (Bethesda, Md.). The cells are plated at 0.5-1.0×10^4 cells/well in the 96 well plates and incubated for 24 hrs before adding test compound. The compounds are added to the cells to achieve a final concentration of 0.1 nM to 50 μM and a final DMSO (dimethylsulfoxide) concentration of 0.5%. Luciferase activity is measured 48 hours later by adding a lysis buffer and the substrate (Catalog number Glo-lysis buffer E2661 and Bright-Glo luciferase system E2620 Promega, Madison, Wis.). Cells should not be too confluent during the assay. Percent inhibition of replication data is plotted relative to no compound control. To determine the EC50 (effective concentration at which 50% of the maximum inhibition is observed), a 10 point, 3-fold serial dilution for each compound is used, which spans a concentration range of 1000 fold. EC50 values were calculated by fitting % inhibition at each concentration to the following equation:
% inhibition=100%/[(EC50/[I])^b+1]
where b is Hill's coefficient.

In general, IC50 refers to the point on the concentration scale where inhibition reaches its midpoint.

As for `CCc1cc2c(C(=O)NC)c(-c3ccc(F)cc3)oc2nc1N(CCCCC(C)=O)S(C)(=O)=O` [Example 22.92, 5-ethyl-2-(4-fluorophenyl)-N-methyl-6-(N-(5-oxohexyl)methylsulfonamido)furo[2,3-b]pyridine-3-carboxamide], the IC50 was 32 nM in test [1] and no more than 100 nM in test [2].
As for `CCc1cc2c(C(=O)NC)c(-c3ccc(F)cc3)oc2nc1N(CCCC(C)=O)S(C)(=O)=O` [Example 22.95, 5-ethyl-2-(4-fluorophenyl)-N-methyl-6-(N-(4-oxopentyl)methylsulfonamido)furo[2,3-b]pyridine-3-carboxamide], the IC50 in test [1] was 40 nM; in test [2], no more than 100 nM.
On to `CCc1cc2c(C(=O)NC)c(-c3ccc(F)cc3)oc2nc1N(CCCCS(C)(=O)=O)S(C)(=O)=O` [Example 23, 5-Ethyl-2-(4-fluoro-phenyl)-6-[methanesulfonyl-(4-methanesulfonyl-butyl)-amino]-furo[2,3-b]pyridine-3-carboxylic acid methylamide], for which the figures for the IC50 in test [1] and in test [2] were 22 nM and no more than 100 nM, respectively.
Take `CCc1cc2c(C(=O)NC)c(-c3ccc(F)cc3)oc2nc1N(CCCN1CCCS1(=O)=O)S(C)(=O)=O` [Example 23.1, 6-{[3-(1,1-Dioxo-isothiazolidin-2-yl)-propyl]-methanesulfonyl-amino}-5-ethyl-2-(4-fluoro-phenyl)-furo[2,3-b]pyridine-3-carboxylic acid methylamide]: the IC50 in test [1] was 45 nM; in test [2] it was no more than 100 nM.
The matching figures for `CCc1cc2c(C(=O)NC)c(-c3ccc(F)cc3)oc2nc1N(CCCN1CCCCS1(=O)=O)S(C)(=O)=O` [Example 23.7, 6-{[3-(1,1-Dioxo-[1,2]thiazinan-2-yl)-propyl]-methanesulfonyl-amino}-5-ethyl-2-(4-fluorophenyl)-furo[2,3-b]pyridine-3-carboxylic acid methylamide]: 5 nM and no more than 100 nM.
Take `CCc1cc2c(C(=O)NC)c(-c3ccc(F)cc3)oc2nc1N(CCCS(=O)(=O)C(C)C)S(C)(=O)=O` [Example 23.91, 5-ethyl-2-(4-fluorophenyl)-6-(N-(3-(isopropylsulfonyl)propyl)methylsulfonamido)-N-methylfuro[2,3-b]pyridine-3-carboxamide]: the results for the IC50 in test [1] and in test [2] were 18 nM and no more than 100 nM, respectively.
The matching figures for `CCc1cc2c(C(=O)NC)c(-c3ccc(F)cc3)oc2nc1N(CCCCS(=O)(=O)C(C)C)S(C)(=O)=O` [Example 23.92, 5-ethyl-2-(4-fluorophenyl)-6-(N-(4-(isopropylsulfonyl)butyl)methylsulfonamido)-N-methylfuro[2,3-b]pyridine-3-carboxamide]: 11 nM and no more than 100 nM.
The matching figures for `CCc1cc2c(C(=O)NC)c(-c3ccc(F)cc3)oc2nc1N(CCCCN1CCC[C@H]1C(=O)O)S(C)(=O)=O` [Example 23.98, (S)-1-(4-(N-(5-ethyl-2-(4-fluorophenyl)-3-(methylcarbamoyl)furo[2,3-b]pyridin-6-yl)methylsulfonamido)butyl) pyrrolidine-2-carboxylic acid]: 166 nM and no less than 5000 nM.
The matching figures for `CCc1cc2c(C(=O)NC)c(-c3ccc(F)cc3)oc2nc1N(CCCC1C(=O)CCS1(=O)=O)S(C)(=O)=O` (centres unmarked) [Example 23.99, 5-Ethyl-2-(4-fluoro-phenyl)-6-{methanesulfonyl-[3-(1,1,3-trioxo-tetrahydrothiophen-2-yl)-propyl]-amino}-furo[2,3-b]pyridine-3-carboxylic acid methylamide]: 26 nM and no more than 100 nM.
Consider `C=CCCN(CCCN(c1nc2oc(-c3ccc(F)cc3)c(C(=O)NC)c2cc1I)S(C)(=O)=O)S(C)(=O)=O` [Example 23.994, 6-(N-(3-(N-(but-3-enyl)methylsulfonamido)propyl)methylsulfonamido)-2-(4-fluorophenyl)-5-iodo-N-methylfuro[2,3-b]pyridine-3-carboxamide], for which the figures for the IC50 in test [1] and in test [2] were 57 nM and no more than 100 nM, respectively.
The corresponding values for `CNC(=O)c1c(-c2ccc(C)cc2)oc2nc(N(CCCC(C)(C)C(=O)O)S(C)(=O)=O)c(C3CC3)cc12` [Example 24, 5-[(5-Cyclopropyl-3-methylcarbamoyl-2-p-tolyl-furo[2,3-b]pyridin-6-yl)-methanesulfonyl-amino]-2,2-dimethyl-pentanoic acid] are 1 nM and no more than 100 nM.
The matching figures for `CNC(=O)c1c(-c2ccc(F)cc2)oc2nc(N(CCCS(C)(=O)=O)S(C)(=O)=O)c(C3CC3)cc12` [Example 24.01]: 1 nM and no more than 100 nM.
The matching figures for `C=Cc1cc2c(C(=O)NC)c(-c3ccc(F)cc3)oc2nc1N(CCCC(=O)OC)S(C)(=O)=O` [Example 24.2, methyl 4-(N-(2-(4-fluorophenyl)-3-(methylcarbamoyl)-5-vinylfuro[2,3-b]pyridin-6-yl)methylsulfonamido) butanoate]: 42 nM and no more than 100 nM.
Regarding `C=Cc1cc2c(C(=O)NC)c(-c3ccc(F)cc3)oc2nc1N(CCCCC(=O)OC)S(C)(=O)=O` [Example 24.3, methyl 5-(N-(2-(4-fluorophenyl)-3-(methylcarbamoyl)-5-vinylfuro[2,3-b]pyridin-6-yl)methylsulfonamido) pentanoate], the IC50 was 57 nM in test [1] and no more than 100 nM in test [2].
The matching figures for `CNC(=O)c1c(-c2ccc(C)cc2)oc2nc(N(CCC[C@@H]3CCCS3(=O)=O)S(C)(=O)=O)c(C3CC3)cc12` [Example 24.7, 5-Cyclopropyl-6-{[3-((R)-1,1-dioxo-tetrahydrothiophen-2-yl)-propyl]-methanesulfonyl-amino}-2-p-tolyl-furo[2,3-b]pyridine-3-carboxylic acid methylamide]: 5 nM and no more than 100 nM.
The matching figures for `CNC(=O)c1c(-c2ccc(Cl)cc2)oc2nc(N(CCC[C@@H]3CCCS3(=O)=O)S(C)(=O)=O)c(C3CC3)cc12` [Example 24.8, 2-(4-Chloro-phenyl)-5-cyclopropyl-6-{[3-((R)-1,1-dioxo-tetrahydrothiophen-2-yl)-propyl]-methanesulfonyl-amino}-furo[2,3-b]pyridine-3-carboxylic acid methylamide]: 1 nM and no more than 100 nM.
The corresponding values for `CNC(=O)c1c(-c2ccc(C3CC3)cc2)oc2nc(N(CCCS(C)(=O)=O)S(C)(=O)=O)c(C3CC3)cc12` [Example 24.9, 5-cyclopropyl-2-(4-cyclopropylphenyl)-N-methyl-6-(N-(3-(methylsulfonyl)propyl)methylsulfonamido)furo[2,3-b]pyridine-3-carboxamide] are 3 nM and no more than 100 nM.
As to `CNC(=O)c1c(-c2ccc(F)cc2)oc2nc(N(CCCOCCOC)S(C)(=O)=O)c(C3CC3)cc12` [Example 25, 5-cyclopropyl-2-(4-fluorophenyl)-6-(N-(3-(2-methoxyethoxy)propyl)methylsulfonamido)-N-methylfuro[2,3-b]pyridine-3-carboxamide], the values for the IC50 in test [1] and in test [2] were 5 nM and no more than 100 nM, respectively.
For `CNC(=O)c1c(-c2ccc(C)cc2)oc2nc(N(CCCCC(=O)O)S(C)(=O)=O)c(C3CC3)cc12` [Example 25.1, 5-(N-(5-cyclopropyl-3-(methylcarbamoyl)-2-p-tolylfuro[2,3-b]pyridin-6-yl)methylsulfonamido)pentanoic acid], the IC50 was 2 nM in test [1] and no more than 100 nM in test [2].
The corresponding values for `CNC(=O)c1c(-c2ccc(C)cc2)oc2nc(N(CCCCC(=O)OC)S(C)(=O)=O)c(C3CC3)cc12` [Example 25.2, methyl 5-(N-(5-cyclopropyl-3-(methylcarbamoyl)-2-p-tolylfuro[2,3-b]pyridin-6-yl)methylsulfonamido) pentanoate] are 3 nM and no more than 100 nM.
The matching figures for `CNC(=O)c1c(-c2ccc(C)cc2)oc2nc(N(CCCS(C)(=O)=O)S(C)(=O)=O)c(C3CC3)cc12` [Example 25.3, 5-cyclopropyl-N-methyl-6-(N-(3-(methylsulfonyl)propyl)methylsulfonamido)-2-p-tolylfuro[2,3-b]pyridine-3-carboxamide]: 1 nM and no more than 100 nM.
The corresponding values for `CNC(=O)c1c(-c2ccc(C3CC3)cc2)oc2nc(N(CCCC3CCCS3(=O)=O)S(C)(=O)=O)c(C3CC3)cc12` (centres unmarked) [Example 25.4, 5-Cyclopropyl-2-(4-cyclopropyl-phenyl)-6-{[3-(1,1-dioxo-tetrahydro-thiophen-2-yl)-propyl]-methanesulfonyl-amino}-furo[2,3-b]pyridine-3-carboxylic acid methylamide] are 1 nM and no more than 100 nM.
